Columns and labels:
[1] = test system: E. coli strains tolC::K3_amber (K3) and tolC::H342_amber (H342); test: Growth of transformed tolC::amber E. coli strains over 24 hours in media containing kanamycin or deoxycholate; assay type: cell-based; details: K3 and H342 strains with control luciferase plasmid, TBAF++ media containing deoxycholate (DOC 150), 37° C., FIGS. 3C-3D
Description: It was evaluated whether plasmid-borne expression of a mutant tRNA with an anticodon that is complementary to the tolC amber mutation would allow for expression of full-length TolC protein, and therefore allow the strain to grow in the presence of an otherwise lethal concentration of nalidixic acid (FIG. 2). In this case, a histidine tRNA, hisR, was modified with an anticodon loop that is complementary to the tolC amber STOP codon, UAG on RNA, which is encoded by TAG on DNA. Mutant E. coli strains were generated by introducing either a tolC::K3_amber (referred to as “K3”) or tolC::H342_amber (referred to as “H342”) amber mutation into the genome (FIG. 3A). Introduction of a STOP codon at an early codon of the open reading frame prevents the translation of non-functional TolC peptides with intact leader sequences, which would otherwise be translocated across the inner cell membrane into the periplasmic space or outer membrane. Each strain also contained codon-optimized tolC coding sequences. Both strains were transformed with a plasmid encoding either i) an amber suppressor tRNA that carries histidine (hisR), or ii) luciferase, as a control plasmid. Both plasmids carried a kanamycin-resistance marker to allow for plasmid maintenance during growth. […]

[2] = test system: tolC mutant strain (tolC::amber, Strain 4); test: Toxin sensitivity of the tolC::amber mutant strain; assay type: cell-based, E. coli; details: low concentrations; irrespective of the growth media
Text: The TAG amber mutation was introduced into the tolC ORF a plasmid DNA production strain, Strain 4 (FIG. 2). TolC is the major outer membrane efflux pump component of E. coli. It is not an essential gene, but it is necessary for the efflux of many toxins, and a tolC knockout is lethal at elevated levels. The tolC mutant strain generated by the tolC::amber mutation was therefore hypersensitive to many toxins, such as low concentrations of nalidixic acid, irrespective of the growth media. While a tolC mutant has hypersensitivity to toxins, it can be cultured normally in rich media such as LB or Terrific Broth, which allows for the generation of competent cells that may be used for DNA synthesis in production.

Row | Compound | Effect on growth of strains not expressing the HisR tRNA [1] | Sensitivity of the tolC mutant strain to the toxin [2]
1 | deoxycholate [DOC 150] | lethal | –
2 | CCn1cc(C(=O)O)c(=O)c2ccc(C)nc21 [nalidixic acid] | – | hypersensitive
